Measured values published in the supplement of paper PMC10307832.

Columns and labels:
Experiment in all cases: relative viability (nuclei count vs DMSO), 5 days (fraction); higher = more cells survive
[1] = compound: C1=CC=C(C(=C1)C2=CC=C(C=C2)C3=CSC4=C3C(=C(C(=O)N4)C#N)O)O + CC1(C)CCC(c2ccc(Cl)cc2)=C(CN2CCN(c3ccc(C(=O)NS(=O)(=O)c4ccc(N[C@H](CCN5CCOCC5)CSc5ccccc5)c(S(=O)(=O)C(F)(F)F)c4)cc3)CC2)C1 [Navitoclax] (partner 0.5 µM)
Procedure, shortened: (§1)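 Cells from lung cancer lines were seeded into 1536-well plates and, one day later, dosed by pin tool. Treatments were either a single drug or a fixed dose of an anchor drug with five library-drug doses (not always all listed) in √10 steps. After 5 days, nuclei were stained in a one-step fixation (final 0.05% Triton X-100, 1% formaldehyde, 1 ug/ml Hoechst) and counted on 4× images, and relative viability is the treated-to-vehicle nuclei ratio, as the median of duplicate plates.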

TGX 221 + Palbociclib = compound: CC1=CN2C(=O)C=C(N=C2C(=C1)C(C)NC3=CC=CC=C3)N4CCOCC4 [TGX 221] + CC(=O)c1c(C)c2cnc(Nc3ccc(N4CCNCC4)cn3)nc2n(C2CCCC2)c1=O [Palbociclib] (partner 0.5 µM)
Procedure, shortened: as §1

TGX 221 + Navitoclax = compound: CC1=CN2C(=O)C=C(N=C2C(=C1)C(C)NC3=CC=CC=C3)N4CCOCC4 [TGX 221] + CC1(C)CCC(c2ccc(Cl)cc2)=C(CN2CCN(c3ccc(C(=O)NS(=O)(=O)c4ccc(N[C@H](CCN5CCOCC5)CSc5ccccc5)c(S(=O)(=O)C(F)(F)F)c4)cc3)CC2)C1 [Navitoclax] (partner 0.5 µM)
Procedure, shortened: as §1

[2] = compound: O=C(CCCCCCNC(=O)c1cnc(N(c2ccccc2)c2ccccc2)nc1)NO [Ricolinostat] + Nc1nc2[nH]cc(CCc3ccc(C(=O)N[C@@H](CCC(=O)O)C(=O)O)cc3)c2c(=O)[nH]1 [Pemetrexed] (partner 0.2 µM)
Procedure, shortened: as §1

Row | Cell Line | relative viability ([1]; first compound 0.08 µM) | relative viability ([1]; first compound 0.253 µM) | relative viability ([1]; first compound 0.8 µM) | relative viability ([1]; first compound 2.53 µM) | relative viability ([1]; first compound 8 µM) | relative viability (TGX 221 + Palbociclib; first compound 0.08 µM) | relative viability (TGX 221 + Palbociclib; first compound 0.253 µM) | relative viability (TGX 221 + Palbociclib; first compound 0.8 µM) | relative viability (TGX 221 + Palbociclib; first compound 2.53 µM) | relative viability (TGX 221 + Palbociclib; first compound 8 µM) | relative viability (TGX 221 + Navitoclax; first compound 0.08 µM) | relative viability (TGX 221 + Navitoclax; first compound 0.253 µM) | relative viability (TGX 221 + Navitoclax; first compound 0.8 µM) | relative viability (TGX 221 + Navitoclax; first compound 2.53 µM) | relative viability (TGX 221 + Navitoclax; first compound 8 µM) | relative viability ([2]; first compound 0.08 µM) | relative viability ([2]; first compound 0.253 µM) | relative viability ([2]; first compound 0.8 µM) | relative viability ([2]; first compound 2.53 µM)
1 | HCC-366 | 0.959 | 1.18 | 1.05 | 1.11 | 0.501 | 0.387 | 0.358 | 0.418 | 0.368 | 0.297 | 1.03 | 0.927 | 0.916 | 1.07 | 0.914 | 0.172 | 0.153 | 0.202 | 0.156
2 | HCC-827 | 1 | 1.12 | 1.04 | 1.04 | 1.04 | 0.489 | 0.468 | 0.487 | 0.436 | 0.425 | 0.951 | 1.02 | 1.02 | 1.05 | 0.982 | 0.23 | 0.256 | 0.232 | 0.212
3 | HOP-62 | 1.22 | 1.1 | 1.04 | 1.18 | 0.922 | 0.429 | 0.449 | 0.484 | 0.509 | 0.43 | 1.04 | 1.06 | 1.09 | 1.12 | 1.06 | 0.304 | 0.28 | 0.337 | 0.319
4 | IA-LM | 0.696 | 1.06 | 0.76 | 0.797 | 0.399 |  |  |  |  |  | 0.722 | 0.707 | 1.02 | 0.849 | 1.02 |  |  |  | 
5 | LC-2-ad | 0.464 | 0.382 | 0.687 | 0.421 | 0.361 | 0.478 | 0.519 | 0.483 | 0.503 | 0.447 | 0.514 |  | 0.424 | 0.348 | 0.361 | 0.32 | 0.272 | 0.28 | 0.269
6 | LCLC-97TM1 | 0.379 | 0.719 | 0.514 | 0.393 | 0.453 | 0.184 | 0.263 | 0.238 | 0.206 | 0.232 | 0.389 | 0.264 | 0.42 | 0.464 | 0.481 | 0.152 | 0.157 | 0.137 | 0.157
7 | LCLC-103H |  |  |  |  |  | 0.472 | 0.471 | 0.469 | 0.424 | 0.495 |  |  |  |  |  | 0.488 | 0.463 | 0.476 | 0.516
8 | LK-2 |  |  | 0.895 | 0.87 | 0.683 | 0.647 | 0.612 | 0.621 | 0.673 | 0.833 | 0.98 | 0.84 | 0.81 | 0.996 | 0.948 | 0.217 | 0.256 | 0.231 | 0.216
9 | LOU-NH91 | 0.693 | 0.722 | 0.658 | 0.638 | 0.551 | 0.612 | 0.511 | 0.448 | 0.492 | 0.517 | 0.705 | 0.647 | 0.707 | 0.681 | 0.544 |  | 0.327 | 0.378 | 0.367
10 | LU99A | 0.64 | 0.878 | 0.804 | 0.791 | 0.769 | 0.383 | 0.344 | 0.373 | 0.405 | 0.366 | 0.647 | 0.756 | 0.824 | 0.799 | 0.811 | 0.188 | 0.159 | 0.184 | 0.156
11 | LXF-289 | 0.951 | 0.968 | 0.996 | 0.994 | 0.967 | 0.595 | 0.628 | 0.612 | 0.641 | 0.568 | 0.966 | 0.967 | 0.929 | 0.882 | 0.945 | 0.935 | 0.775 | 0.895 | 0.792
12 | NCI-H23 | 0.883 | 0.746 | 1 | 0.754 | 0.468 | 0.479 | 0.441 | 0.424 | 0.479 | 0.389 | 0.753 | 0.763 | 0.832 | 0.608 | 0.713 | 0.562 | 0.642 | 0.684 | 0.737
13 | NCI-H358 |  |  |  |  |  | 0.116 | 0.118 | 0.149 | 0.116 | 0.125 |  |  |  |  |  | 0.179 | 0.194 | 0.183 | 0.156
14 | NCI-H522 |  |  |  |  |  | 0.941 | 1.01 | 0.929 | 0.944 | 0.815 |  |  |  |  |  | 0.972 | 1.03 | 1.05 | 0.924
15 | NCI-H596 | 0.791 | 1.32 | 0.955 | 0.951 | 0.787 |  |  |  |  |  | 0.996 | 0.863 | 0.969 | 0.902 | 0.886 | 0.511 | 0.527 | 0.504 | 0.52
16 | NCI-H650 |  |  |  |  |  | 0.303 | 0.294 | 0.307 | 0.32 | 0.273 |  |  |  |  |  | 0.643 | 0.912 | 0.861 | 0.734
17 | NCI-H661 |  |  |  |  |  | 0.427 | 0.43 | 0.396 | 0.406 | 0.376 |  |  |  |  |  | 0.832 | 0.879 | 0.9 | 0.776
18 | NCI-H727 | 0.426 | 0.478 | 0.48 | 0.409 | 0.479 | 0.643 | 0.518 | 0.667 | 0.679 | 0.602 | 0.383 | 0.317 | 0.491 | 0.332 | 0.365 |  |  |  | 
19 | NCI-H1299 | 1.12 | 1.02 | 1.04 | 1.1 | 1.07 |  |  |  |  |  | 1.01 | 1.03 | 1.04 | 1.07 | 0.985 |  |  |  | 
20 | NCI-H1563 |  |  |  |  |  |  |  |  |  |  |  |  |  |  |  | 0.788 | 0.767 | 0.74 | 0.726
21 | NCI-H1648 |  |  |  |  |  |  | 0.247 | 0.231 | 0.25 | 0.273 |  |  |  |  |  |  | 0.596 | 0.629 | 0.521
22 | NCI-H1703 | 0.989 | 1.04 | 1.2 | 0.93 | 0.962 |  |  |  |  |  | 1.05 | 0.822 | 0.969 | 0.97 | 0.633 |  |  |  | 
23 | NCI-H2342 |  |  |  |  |  | 0.541 | 0.529 | 0.492 | 0.517 | 0.531 |  |  |  |  |  | 0.734 | 0.785 | 0.719 | 0.637
24 | SW 900 |  |  |  |  |  |  | 0.429 | 0.427 | 0.356 | 0.295 |  |  |  |  |  | 0.496 | 0.488 | 0.491 | 0.441
